We go through eight molecules from patent publication US5254558A, “Substituted 1,3-diazines as leukocyte elastase inhibitors” (Imperial Chemical Industries PLC, priority 1991, dated 1993).

Test [1] relates to HLE. The experiment in a line: in vivo tests (Acute Lung Injury Model, Acute Hemorrhagic Assay). As to conditions: basis for compounds of particular interest.
The target of test [2] is T1, human leukocyte elastase (HLE) (Homo sapiens, UniProt P08246).
T1 sequence (P08246 30-247 limits assumed): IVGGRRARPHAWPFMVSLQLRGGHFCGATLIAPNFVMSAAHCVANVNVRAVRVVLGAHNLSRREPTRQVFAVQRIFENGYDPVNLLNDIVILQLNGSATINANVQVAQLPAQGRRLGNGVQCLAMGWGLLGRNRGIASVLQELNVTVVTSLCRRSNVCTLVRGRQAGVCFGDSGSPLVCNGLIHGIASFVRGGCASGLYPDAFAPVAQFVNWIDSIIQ
The experiment in a line: Inhibition measurements: Ki against HLE on substrate methoxy-succinyl-alanyl-alanyl-prolyl-valine-p-nitroanilide. It counts as biochemical. As to conditions: read-out: Ki, dissociation constant of the complex of inhibitor with HLE. On the procedure:
The potency of a Compound to act as an inhibitor of human leukocyte elastase (HLE) on the low molecular weight peptide substrate methoxy-succinyl-alanyl-alanyl-prolyl-valine-p-nitroanilide is determined as described in U.S. Pat. No. 4,910,190. The potency of an inhibitor is evaluated by obtaining a kinetic determination of the dissociation constant, Ki, of the complex formed from the interaction of the inhibitor with HLE. If a Compound is found to be a "slow-binding" inhibitor of HLE, special methods of analysis to accurately determine Ki values for the inhibition of HLE are carried out as described in U.S. Pat. No. 4,910,190. In general, the Ki values for Compounds of the invention which were tested are generally on the order of 10^-7 M or much less.

The test system of test [3] is human neutrophil elastase (HNE). Briefly: Acute Hemorrhagic Assay: lung hemorrhage after intratracheal HNE in hamsters. In kind it is in vivo, hamster. Particulars: 2.5 mg/kg by mouth, male Syrian hamsters. The protocol: This assay relies on monitoring only the amount of hemorrhage in the lung following intratracheal administration of human neutrophil elastase (HNE). Hemorrhage is quantified by disrupting erythrocytes recovered in lung lavage fluid and comparing that to dilutions of whole hamster blood. The screening protocol, similar to that described in Fletcher et al., American Review of Respiratory Disease (1990), 141, 672-677, is as follows. […] The compounds are then dosed by mouth to male Syrian hamsters at a fixed time, such as 30 or 90 min, prior to intratracheal administration of 50 μg/animal of HNE in 300 μL phosphate buffered saline (PBS) pH 7.4. Four hours enzyme administration, the animals are killed with an overdose of pentobarbital sodium, the thorax opened and the lungs and trachea removed. […] The recovered lavages are pooled, the volumes (about 5 mL) are recorded and the lavages stored at 4° C. until assayed. […] The optical densities (OD) of the disrupted lavages and blood samples are determined at 405 nm. The (μL blood equivalents)/(mL lavage) are determined by comparing the OD of the test samples with the OD of the standard curve prepared from whole hamster blood. The total μL equivalents of blood recovered is determined by multiplying recovered lavage volume by the (μL blood equivalents)/(mL lavage) for each sample. […]

Molecules are shown by their SMILES.

Regarding `CC(C)C(NC(=O)Cn1c(-c2cccs2)ncc(N)c1=O)C(=O)C(F)(F)F` (centres unmarked) [Example 12, 2-[5-Amino-6-oxo-2-(2-thienyl)-1,6-dihydro-1-pyrimidinyl]-N-(3,3,3-trifluoro-1-isopropyl-2-oxopropyl)acetamide], the “activity in in vivo tests” value in test [1] is on record as “activity in in vivo tests”.
Same read-out and setting: as for `CSC(=O)Nc1cnc(-c2ccccc2)n(CC(=O)NC(C(=O)C(F)(F)F)C(C)C)c1=O` (centres unmarked) [Example 100], the entry is “activity in in vivo tests”; as for `CC(C)C(NC(=O)Cn1c(-c2cccs2)ncc(NC(=O)OCC(F)(F)F)c1=O)C(=O)C(F)(F)F` (centres unmarked) [Example 106], “activity in in vivo tests”; as for `CC(C)C(NC(=O)Cn1c(-c2cccs2)ncc(NC=O)c1=O)C(=O)C(F)(F)F` (centres unmarked) [Example 157], “activity in in vivo tests”.
As for `CCNc1cnc(-c2cccs2)n(CC(=O)NC(C(=O)C(F)(F)F)C(C)C)c1=O` (centres unmarked) [Example 82], the “activity in in vivo tests” value in test [1] is given as “activity in in vivo tests”.
As to `CC(C)OC(=O)Nc1cnc(-c2cccs2)n(CC(=O)NC(C(=O)C(F)(F)F)C(C)C)c1=O` (centres unmarked) [Example 51], the Ki (in general, a measure of affinity in units of concentration, obtained from inhibition or displacement) in test [2] was 27 nM. Besides, the inhibition of hemorrhage entry in test [3] (30 min prior to HNE) and in test [3] (90 min prior to HNE) was “statistically significant inhibition of hemorrhage” in each case. In addition, in test [1], the “activity in in vivo tests” value is recorded as “activity in in vivo tests”.
For `CSC(=O)Nc1cnc(-c2ccc(F)cc2)n(CC(=O)NC(C(=O)C(F)(F)F)C(C)C)c1=O` (centres unmarked) [Example 102], the “activity in in vivo tests” value in test [1] is listed as “activity in in vivo tests”.
Still for that read-out and setting: the same measure for `CC(C)C(NC(=O)Cn1c(-c2ccccc2)ncc(NC=O)c1=O)C(=O)C(F)(F)F` (centres unmarked) [Example 159]: “activity in in vivo tests”.
